Source: patent US20120264827A1, “SULFANYLAMIDE DERIVATIVES, USES THEREOF AND COMPOSITIONS COMPRISING THEM” (YISSUM RESEARCH DEVELOPMENT COMPANY OF THE HEBREW …, priority 2009, published 2012)
Where two headings read alike, the source gives them in different places.

Experiments:
[1] = tested on: subcutaneous metrazol (pentylenetetrazol) seizure; assay: Subcutaneous metrazol seizure threshold test (scMet), mice, intraperitoneal; assay type: in vivo; conditions: ip;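 also: adult male CF no. 1 albino mice weighing 18-25 g, dosed intraperitoneally with compounds suspended in 0.5% methylcellulose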
[2] = tested on: maximal electroshock seizure (MES); assay: Maximal electroshock seizure test (MES), mice, intraperitoneal; assay type: in vivo; conditions: ip;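 also: adult male CF no. 1 albino mice of 18–25 g, given compound intraperitoneally as a 0.5% methylcellulose suspension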
[3] = tested on: maximal electroshock seizure (MES); assay: Maximal electroshock seizure test (MES), rats, oral; conditions: Rattus norvegicus, po, read-out: Anti-MES activity (number of animals protected/number of animals tested);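 also: adult male Sprague-Dawley rats received test compounds by mouth as a suspension in 0.5% methylcellulose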
Protocol: The tested compounds were suspended in 0.5% methylcellulose and administered (a) intraperitioneally (ip) to adult male CF no. 1 albino mice (18-25 g) in volume of 0.01 mL/g body weight and (b) orally to adult male Sprague-Dawley albino rats (100-150 g) in volume of 0.04 mL per 10 g of body weight.
The TD50 was determined by varying the dose of the tested compounds until four points were established between the dose level that induced no signs of minimal motor impairment in any of the animals and the dose at which all the animals were considered impaired. […] The PIs were calculated by dividing the TD50 by the ED50.

[4] = 30 mg/kg, 0.5 h after administration
[5] = 30 mg/kg, 4 h after administration
[6] = 100 mg/kg, 0.5 h after administration
[7] = 100 mg/kg, 4 h after administration
[8] = 300 mg/kg, 0.5 h after administration
[9] = 300 mg/kg, 4 h after administration

SMILES | scMet (number of animals protected/number of animals tested) [1, 4] | scMet (number of animals protected/number of animals tested) [1, 5] | scMet (number of animals protected/number of animals tested) [1, 6] | scMet (number of animals protected/number of animals tested) [1, 7] | scMet (number of animals protected/number of animals tested) [1, 8] | scMet (number of animals protected/number of animals tested) [1, 9] | MES (number of animals protected/number of animals tested) [2, 4] | MES (number of animals protected/number of animals tested) [2, 5] | MES (number of animals protected/number of animals tested) [2, 6] | MES (number of animals protected/number of animals tested) [2, 7] | MES (number of animals protected/number of animals tested) [2, 8] | MES (number of animals protected/number of animals tested) [2, 9] | responders at 30 mg/kg ([3]; 0.5 h) [%] | responders at 30 mg/kg ([3]; 1 h) [%] | responders at 30 mg/kg ([3]; 2 h) [%] | responders at 30 mg/kg ([3]; 4 h) [%] | responders at 30 mg/kg ([3]; […]) [%]
CCCC(C(=O)Nc1ccc(S(N)(=O)=O)cc1)C(C)(C)C (stereo not drawn) [Compound 22, 2-tert-Butyl-N-(4-sulfamoyl-phenyl)-pentanamide] | 0/1 0/1 0/1 | 0/1 0/1 0/1 | 0/1 0/1 0/1 | 0/1 0/1 0/1 | 0/1 0/1 0/1 | 0/1 0/1 0/1 | 0/1 | 0/1 | 0/3 | 0/3 | 0/1 | 0/1 |  |  |  |  | 
CCC(CC)C(=O)NCCc1ccc(S(N)(=O)=O)cc1 [Compound 29, 2-Ethyl-N-[2-(4-sulfamoyl-phenyl)-ethyl]-butyramide] | 0/1 0/1 0/1 | 0/1 0/1 0/1 | 0/1 0/1 0/1 | 0/1 0/1 0/1 | 0/1 0/1 0/1 | 0/1 0/1 0/1 | 0/1 | 1/1 | 0/3 | 1/3 | 0/1 | 1/1 | 50 | 75 | 25 | 25 | 25
CC(C)(C)CC(=O)Nc1ccc(S(N)(=O)=O)cc1 [Compound 15, 3,3-Dimethyl-N-(4-sulfamoyl-phenyl)-butyramide] | 0/1 0/1 0/1 | 0/1 0/1 0/1 | 0/1 0/1 0/1 | 0/1 0/1 0/1 | 0/1 0/1 0/1 | 0/1 0/1 0/1 | 0/1 | 0/1 | 5/7 | 1/3 | 4/5 | 1/1 | 25 | 75 | 100 | 100 | 75
CCC(C(=O)Nc1ccc(S(N)(=O)=O)cc1)C(C)(C)C (stereo not drawn) [Compound 12, 2-Ethyl-3,3-dimethyl-N-(4-sulfamoyl-phenyl)-butyramide] | 0/1 0/1 0/1 | 0/1 0/1 0/1 | 0/1 0/1 0/1 | 0/1 0/1 0/1 | 0/1 0/1 0/1 | 0/1 0/1 0/1 | 0/1 | 0/1 | 0/3 | 1/3 | 0/1 | 1/1 |  |  |  |  | 
CCC(C)C(=O)Nc1ccc(S(N)(=O)=O)cc1 (stereo not drawn) [Compound 10, 2-Methyl-N-(4-sulfamoyl-phenyl)-butyramide] | 0/1 0/1 0/1 | 0/1 0/1 0/1 | 0/1 0/1 0/1 | 0/1 0/1 0/1 | 0/1 0/1 0/1 | 0/1 0/1 0/1 | 1/1 | 1/1 | 3/3 | 3/3 | 1/1 | 1/1 | 50 | 100 | 100 | 100 | 50
CCCC(CC)C(=O)Nc1ccc(S(N)(=O)=O)cc1 (stereo not drawn) [Compound 17, 2-Ethyl-N-(4-sulfamoyl-phenyl)-pentanamide] | 0/1 0/1 0/1 | 0/1 0/1 0/1 | 0/1 0/1 0/1 | 0/1 0/1 0/1 | 0/1 0/1 0/1 | 0/1 0/1 0/1 | 0/1 | 0/1 | 0/3 | 1/3 | 0/1 | 1/1 |  |  |  |  | 
CCC(C)CC(=O)Nc1ccc(S(N)(=O)=O)cc1 (stereo not drawn) [Compound 24, 3-Methyl-N-(4-sulfamoyl-phenyl)-pentanamide] | 0/1 0/1 0/1 | 0/1 0/1 0/1 | 0/1 0/1 0/1 | 0/1 0/1 0/1 | 0/1 0/1 0/1 | 0/1 0/1 0/1 | 0/1 | 0/1 | 0/3 | 0/3 | 0/1 | 0/1 |  |  |  |  | 
CC(C)C(C(=O)Nc1ccc(S(N)(=O)=O)cc1)C(C)(C)C (stereo not drawn) [Compound 14, 2-Isopropyl-3,3-dimethyl-N-(4-sulfamoyl-phenyl)-butyramide] | 0/1 0/1 0/1 | 0/1 0/1 0/1 | 0/1 0/1 0/1 | 0/1 0/1 0/1 | 0/1 0/1 0/1 | 0/1 0/1 0/1 | 0/1 | 0/1 | 0/3 | 3/3 | 0/1 | 1/1 |  |  |  |  | 
